Assay results: patent US20250170266A1 (ZYMEWORKS BC INC., priority 2022, published 2025)
pEC50: −log10 of the molar value. Like-named read-outs stand apart in the source and are kept apart here.

Legend:
Type in all cases: cell-based
Mouse splenocytes = assay: Mouse Splenocyte Assay, cytokine release (HTRF); details: 24 hours, mIL6 in supernatant; for pEC50: Splenocyte, read-out: Splenocyte IL6 EC50
Description: Mouse splenocytes were isolated from fresh mouse spleens. Briefly, spleens were harvested from female balb/c nude mice and transferred to a 70 μm cell strainer. The cell strainer was subsequently placed in a 6-well suspension culture plate containing 5 mL media (RPMI+10% FBS). The spleens were crushed against the cell strainer using the flat end of a 10 mL syringe plunger and the cell strainer was washed with 5 mL media. The cell strainer was discarded, and the cell suspension was washed in PBS. Red blood cells were removed using PharmaLyse (BD). The cell suspension was washed in media, resuspended in CryoStor® CS10 ([…]) and frozen. On assay day, mouse splenocytes were thawed in warm assay buffer (RPMI+10% FBS). Cells were spun down and resuspended in fresh assay buffer. 100,000 cells were added to each well of plates containing test compound. For test compound preparation, each compound was initially diluted to 1 mM in DMSO and further diluted in assay buffer. A 4-fold 11-point titration starting from 15 μM was performed. Cells were incubated with test compound at 37° C.+5% CO2 for 24 hours before supernatant was harvested. Murine IL6 (mIL6) and murine TNFα (mTNFα) were quantified in the supernatant using homogeneous time resolved fluorescence (Cisbio).
Each assay included a positive control compound (referred to herein as “benchmark,” see, e.g., TABLE 3 below, and taken from International Patent Publication No. WO2017/072662, structure shown below) and a negative control (growth medium). […] The structure of the benchmark compound from International Patent Publication No. WO 2017/072662 is as follows: […]

hTLR7 = biological target: T1, hTLR7 (Homo sapiens, UniProt Q9NYK1); assay: Reporter Gene Assay (RGA), HEK-Blue hTLR7 reporter cells, SEAP readout; details: overnight incubation, SEAP absorbance 620 nm
T1 construct: host or cells: HEK-Blue hTLR7 reporter cells (HEK293-derived, own knowledge)
T1 sequence (Q9NYK1 27-1049): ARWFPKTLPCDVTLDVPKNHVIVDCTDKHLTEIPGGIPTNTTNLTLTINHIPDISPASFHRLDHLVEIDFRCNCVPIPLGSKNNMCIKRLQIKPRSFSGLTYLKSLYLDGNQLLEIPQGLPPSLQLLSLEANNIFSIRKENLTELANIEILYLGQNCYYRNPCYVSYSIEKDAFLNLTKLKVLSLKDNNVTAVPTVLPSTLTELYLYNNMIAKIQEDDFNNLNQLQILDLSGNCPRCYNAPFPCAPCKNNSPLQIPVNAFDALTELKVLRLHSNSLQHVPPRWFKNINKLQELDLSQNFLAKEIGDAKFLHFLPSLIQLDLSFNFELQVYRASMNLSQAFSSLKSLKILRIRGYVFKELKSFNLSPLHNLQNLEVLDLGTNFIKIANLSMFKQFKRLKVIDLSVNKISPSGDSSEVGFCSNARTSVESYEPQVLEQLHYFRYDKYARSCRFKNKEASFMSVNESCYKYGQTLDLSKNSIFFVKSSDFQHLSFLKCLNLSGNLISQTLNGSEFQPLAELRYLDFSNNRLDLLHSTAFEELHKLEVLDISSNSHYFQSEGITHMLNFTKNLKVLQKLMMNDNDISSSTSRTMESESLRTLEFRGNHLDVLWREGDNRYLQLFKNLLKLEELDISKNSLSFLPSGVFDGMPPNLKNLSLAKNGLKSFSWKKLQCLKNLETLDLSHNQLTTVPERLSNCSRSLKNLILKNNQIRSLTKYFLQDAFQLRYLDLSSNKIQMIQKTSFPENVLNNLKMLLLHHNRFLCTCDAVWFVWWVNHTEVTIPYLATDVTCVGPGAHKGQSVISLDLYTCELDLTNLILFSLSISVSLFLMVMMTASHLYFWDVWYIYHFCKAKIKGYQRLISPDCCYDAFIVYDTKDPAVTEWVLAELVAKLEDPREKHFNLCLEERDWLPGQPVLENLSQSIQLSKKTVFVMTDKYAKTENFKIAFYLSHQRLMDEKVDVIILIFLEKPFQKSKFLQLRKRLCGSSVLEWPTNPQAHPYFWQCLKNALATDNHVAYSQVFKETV
Outline: (§1)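 HEK-Blue reporter cells expressing human or mouse TLR7 (1.5×10^4 cells) were treated with an 11-point, 4-fold compound titration from 15 pM in HEK-Blue Detection medium. Incubation was overnight at 37° C with 5% CO2. Secreted embryonic alkaline phosphatase was read as absorbance at 620 nm.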

mTLR7 = biological target: T2, mTLR7 (Mus musculus, UniProt P58681); assay: Reporter Gene Assay (RGA), HEK-Blue mTLR7 reporter cells, SEAP readout; details: overnight incubation, SEAP absorbance 620 nm
T2 construct: host or cells: HEK-Blue mTLR7 reporter cells (HEK293-derived, own knowledge)
T2 sequence (P58681 27-1050): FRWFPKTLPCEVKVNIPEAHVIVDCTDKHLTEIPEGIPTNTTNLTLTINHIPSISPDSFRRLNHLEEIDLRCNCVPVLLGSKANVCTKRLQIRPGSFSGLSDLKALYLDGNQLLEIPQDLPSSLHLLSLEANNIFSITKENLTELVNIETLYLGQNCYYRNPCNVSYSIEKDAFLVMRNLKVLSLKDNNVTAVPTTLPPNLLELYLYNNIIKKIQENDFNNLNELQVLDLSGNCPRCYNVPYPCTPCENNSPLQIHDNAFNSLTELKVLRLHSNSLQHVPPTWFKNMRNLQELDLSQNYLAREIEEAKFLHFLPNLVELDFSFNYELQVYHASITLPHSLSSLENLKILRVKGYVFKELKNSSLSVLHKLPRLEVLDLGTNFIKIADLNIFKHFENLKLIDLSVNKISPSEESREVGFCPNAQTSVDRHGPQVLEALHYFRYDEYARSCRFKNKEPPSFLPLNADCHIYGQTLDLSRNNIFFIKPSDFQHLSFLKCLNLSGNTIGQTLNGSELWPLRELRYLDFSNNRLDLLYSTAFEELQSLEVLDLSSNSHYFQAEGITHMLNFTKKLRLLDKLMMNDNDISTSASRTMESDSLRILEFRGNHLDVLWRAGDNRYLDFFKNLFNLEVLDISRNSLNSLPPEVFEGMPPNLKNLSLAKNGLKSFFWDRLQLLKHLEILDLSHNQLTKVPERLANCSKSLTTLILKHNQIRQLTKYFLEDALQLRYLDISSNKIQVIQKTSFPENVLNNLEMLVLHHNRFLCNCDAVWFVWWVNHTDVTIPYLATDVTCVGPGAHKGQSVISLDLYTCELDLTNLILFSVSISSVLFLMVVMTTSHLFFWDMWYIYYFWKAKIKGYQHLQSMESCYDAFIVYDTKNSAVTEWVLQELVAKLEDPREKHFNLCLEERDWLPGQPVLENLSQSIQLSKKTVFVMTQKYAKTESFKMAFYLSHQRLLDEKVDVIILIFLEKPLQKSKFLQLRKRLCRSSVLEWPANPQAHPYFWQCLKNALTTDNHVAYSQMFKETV
Outline: as §1

[1] = system: Human peripheral blood mononuclear cells (PBMCs); assay: Human PBMC Assay, cytokine release (HTRF); details: 24 hours; for pEC50: PBMC
Outline: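 Cryopreserved human PBMCs, rested overnight with 10 ng/ml hIL3, then 300,000 cells/well treated 24 h at 37° C with compound (4-fold, 11-point titration from 15 μM) in RPMI+10% FBS. Supernatant hIL6, hTNFα and hIFNα measured by HTRF; growth medium as negative control.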

[2] = hIFNα in supernatant, EC50 values approximated and divided into groups, read-out: PBMC IFNa EC50
[3] = hIL6 in supernatant, read-out: PBMC IL6 EC50

Structure (SMILES) | pEC50 (Mouse splenocytes) | pEC50 (hTLR7) | pEC50 (mTLR7) | Splenocyte IL6 EC50 (nM) (Mouse splenocytes) | pEC50 [1, 2] | PBMC IL6 EC50 (nM) ([1]; hIL6 in supernatant) | pEC50 [1, 3]
CCCCOc1nc(N)c2nc(O)n(Cc3ccc(N4CCNCC4)cc3OC)c2n1 [Compound 169, 6-amino-2-butoxy-9-(2-methoxy-4-(piperazin-1-yl)benzyl)-9H-purin-8-ol] | 7.63 | 8.96 | 8.52 | – | 8.00 to 9.00 | – | –
CCCCOc1nc(N)c2nc(O)n(Cc3ccc(N4CCC5(CCNCC5)CC4)nc3)c2n1 [Compound 168, 9-((6-(3,9-diazaspiro[5.5]undecan-3-yl)pyridin-3-yl)methyl)-6-amino-2-butoxy-9H-purin-8-ol] | 7.45 | 10.00 | 8.24 | – | < 8.00 | inactive | –
CCCCOc1nc(N)c2nc(O)n(Cc3ccc(CNCCCCN)cc3OC)c2n1 [Compound 160, 6-amino-9-(4-(((4-aminobutyl)amino)methyl)-2-methoxybenzyl)-2-butoxy-9H-purin-8-ol] | 8.18 | 8.14 | 8.00 | – | > 10.00 | – | 5.97
CCCN(CCC)Cc1ccc(CNCc2ccc(Cn3c(O)nc4c(N)nc(OCC)nc43)c(OC)c2)cc1 [Compound 141, 6-amino-9-(4-(((4-((dipropylamino)methyl)benzyl)amino)methyl)-2-methoxy-benzyl)-2-ethoxy-9H-purin-8-ol] | 8.89 | 10.00 | 9.00 | – | > 10.00 | – | 5.03
CCOc1nc(N)c2nc(O)n(Cc3ccc(CN4CCNCC4)nc3)c2n1 [Compound 192, 6-amino-2-ethoxy-9-((6-(piperazin-1-ylmethyl)pyridin-3-yl)methyl)-9H-purin-8-ol] | – | 7.29 | 6.17 | inactive | < 8.00 | – | 6.69
CCCCOc1nc(N)c2nc(O)n(Cc3ccc(CNC(CO)[C@@H](C)CC)cc3OC)c2n1 (stereo in doubt) [Compound 161, 6-amino-2-butoxy-9-(4-((((2R,3S)-1-hydroxy-3-methylpentan-2-yl)amino)-methyl)-2-methoxybenzyl)-9H-purin-8-ol] | 9.52 | > 10.00 | > 10.00 | – | > 10.00 | – | 7.78

Further compounds by rising pEC50 (hTLR7), results first:

pEC50 (Mouse splenocytes) | pEC50 (hTLR7) | pEC50 (mTLR7) | Splenocyte IL6 EC50 (nM) (Mouse splenocytes) | Structure (SMILES) | pEC50 [1, 2] | PBMC IL6 EC50 (nM) ([1]; hIL6 in supernatant) | pEC50 [1, 3]
– | 6.34 | 7.95 | inactive | CCCCCNc1nc(N)c2nc(O)n(Cc3ccc(CNC4CC(F)(F)C4)cc3)c2n1 [Compound 186, 6-amino-9-(4-(((3,3-difluorocyclobutyl)amino)methyl)benzyl)-2-(pentyl-amino)-9H-purin-8-ol] | < 8.00 | inactive | –
7.34 | 7.54 | 9.30 | – | CCCCCNc1nc(N)c2nc(O)n(Cc3ccc(CNCc4ccc(CN)cc4)cc3)c2n1 [Compound 191, 6-amino-9-(4-(((4-(aminomethyl)benzyl)amino)methyl)benzyl)-2-(pentyl-amino)-9H-purin-8-ol] | > 10.00 | – | –
– | 7.74 | 6.35 | inactive | CCOc1nc(N)c2nc(O)n(Cc3ccc(CN4C[C@@H]5C[C@H]4CN5)cc3OC)c2n1 [Compound 128, 9-(4-(((1S,4S)-2,5-diazabicyclo[2.2.1]heptan-2-yl)methyl)-2-methoxybenzyl)-6-amino-2-ethoxy-9H-purin-8-ol] | 8.00 to 9.00 | – | 6.78
5.53 | 8.20 | 7.11 | – | CCOc1nc(N)c2nc(O)n(Cc3ccc(CN4CCNCC4)cc3OC)c2n1 [Compound 100, 6-amino-2-ethoxy-9-(2-methoxy-4-(piperazin-1-ylmethyl)benzyl)-9H-purin-8-ol] | 8.00 to 9.00 | – | 6.62
7.14 | 8.22 | 8.30 | – | CCOc1nc(N)c2nc(O)n(Cc3ccc(CNC4CCC4)cc3OC)c2n1 [Compound 108, 6-amino-9-(4-((cyclobutylamino)methyl)-2-methoxybenzyl)-2-ethoxy-9H-purin-8-ol] | > 10.00 | – | 6.25
6.63 | 8.24 | 7.19 | – | CCOc1nc(N)c2nc(O)n(Cc3ccc(CN4CCC(CN)CC4)cc3OC)c2n1 [Compound 132, 6-amino-9-(4-((4-(aminomethyl)piperidin-1-yl)methyl)-2-methoxybenzyl)-2-ethoxy-9H-purin-8-ol] | < 8.00 | – | 6.93
8.00 | 8.59 | 7.84 | – | CCOc1nc(N)c2nc(O)n(Cc3ccc(CNCc4ccc(CN5CCOCC5)cc4)cc3OC)c2n1 [Compound 142, 6-amino-2-ethoxy-9-(2-methoxy-4-(((4-(morpholinomethyl)benzyl)amino)-methyl)benzyl)-9H-purin-8-ol] | > 10.00 | – | 7.87
– | 8.89 | 7.50 | inactive | CCOc1nc(N)c2nc(O)n(Cc3ccc(CN4CCNCC4)cc3F)c2n1 [Compound 152, 6-amino-2-ethoxy-9-(2-fluoro-4-(piperazin-1-ylmethyl)benzyl)-9H-purin-8-ol] | 9.00 to 10.00 | – | 7.77
